Assay results published in patent US20070190544A1, “Methods of screening for resistance to microtuble-targeting drugs” (Emory University, priority 2005, published 2007).
Entries after “also recorded” stand apart in the source; their conditions may differ.

Tests used:
[1] = tested on: KB-3-1 epidermal cells; conditions: Asp26Glu β-tubulin mutation; cited from earlier work
[2] = tested on: 1A9-A8 cells; assay: cells; type: cell-based, human; conditions: for IC50: 1A9-A8 cells, 72 hour exposure to the drug; for Relative Resistance (1A9-A8): ratio of IC50 against 1A9-A8 divided by IC50 against parental 1A9
Method: (§1) The epothilone A resistant cell line, 1A9-A8, was selected from the human ovarian carcinoma 1A9 cells as described by Giannakakou et al. ((2000) Proc. Natl. Acad. Sci. USA 97:2904-2909). The 1A9-A8^E clone (expressing both wt and mutant alleles) was an intermediate isolate in the selection process of 1A9-A8 (mutant allele only) cells. These cells were cultured in RPMI 1640 medium (Cellgro, Herndon, Va.) supplemented with 10% fetal bovine serum (Invitrogen, Carlsbad, Calif.) and 1% Penicillin-Streptomycin (Cellgro), and grown as monolayers at 37° C. in a 5% CO2 tissue culture incubator. The mouse monoclonal anti-α-tubulin (DM1α) antibody used is from Sigma Chemical Co. (St. Louis, Mo.). Both epothilones A and B were a generous gift from the laboratory of K. C. Nicolaou (The Scripps Research Institute, La Jolla, Calif.). Paclitaxel (Taxol®) was purchased from Sigma Chemical Co. and vincristine from Eli-Lilly (Indianapolis, Ind.).
(§2) Cytotoxicity assays using the protein-staining sulforhodamine B (SRB) method were performed in 96-well plates, as described by Giannakakou et al. ((1997) J. Biol. Chem. 272:17118-17125).

[3] = tested on: 1A9-A8^E cells; assay: cells; type: cell-based, human; conditions: for IC50: 1A9-A8^E cells, 72 hour exposure to the drug; for Relative Resistance (1A9-A8^E): ratio of IC50 against 1A9-A8^E divided by IC50 against parental 1A9; for resistance of early-step isolate 1A9-A8^E to the selecting agent: growth inhibition assays, versus parental 1A9
Method: as §1, §2

[4] = tested on: 1A9 cells; assay: cells; type: cell-based, human; conditions: parental 1A9 cells, 72 hour exposure to the drug
Method: as §1, §2

[5] = tested on: 1A9/B10 ovarian cancer cells; conditions: βArg282Gln mutation, EpoB-selected 1A9/B10 cells; cited from earlier work
[6] = tested on: human epidermoid carcinoma cell line; conditions: Thr274Pro β-tubulin mutation; cited from earlier work
[7] = tested on: 1A9-A8^E cells; assay: Cell cycle analysis by flow cytometry (G2/M arrest), 1A9-A8^E cells; type: cell-based, human
Method: (§3) Cell cycle analysis by flow cytometry was performed in the parental 1A9 and the 1A9-Epo^R clones, following overnight treatment with Epo A or Vincristine (VCR) as indicated. […] 10,000 events were recorded for each condition, the histogram is representative of three independent experiments.
(§4) Cells were plated in 6-well plates. The following day, they were treated with various concentrations of epothilone A and vincristine for 18 hours. Following treatment, both adherent and floating cells were harvested and pelleted by centrifugation. Cell pellets were suspended in 1 ml of 0.1 mg/ml propidium iodide containing 0.6% NP40 (ICN Pharmaceuticals, Costa Mesa, Calif.) with 1 mg/ml RNase A (Sigma Chemical Co.), then incubated in the dark at room temperature for 30 minutes. Data acquisition and analysis were performed on a FACScan instrument equipped with CellQuest software (Becton Dickinson Immunocytometry Systems, Franklin Lakes, N.J.). Cell cycle analysis was performed with Flowjo (Treestar). All cell cycle experiments were performed at least three times.

[8] = tested on: 1A9 cells; assay: Cell cycle analysis by flow cytometry (G2/M arrest), 1A9 cells; type: cell-based, human
Method: as §3, §4

[9] = tested on: tubulin; assay: Cell-based tubulin polymerization assay, 1A9-A8^E cells; parameters: species or system human
Method: (§5) Drug-sensitive parental 1A9 (top panel) and the Epo A-resistant clones, 1A9/A8 and 1A9/A8E (lower panel), were treated for 5 hours with or without (0) various concentrations of Epo A as indicated. After cell lysis, the polymerized (P) and the soluble (S) protein fractions were separated by centrifugation, resolved by SDS/PAGE, and immunoblotted with an antibody against alpha-tubulin. The percent of polymerized tubulin (% P) was determined by dividing the densitometric value of polymerized tubulin by the total tubulin content (the sum of P plus S). The results shown are from a representative experiment of four independent observations.
(§6) In order to examine whether the tubulin gene status correlates with the ability of epothilone to induce tubulin polymerization in the three related cell lines (1A9, 1A9-A8, and 1A9-A8^E), cell-based tubulin polymerization assays were performed (FIG. 1). After treating the cells with escalating doses of Epo A, the cells were harvested in a low salt buffer and then centrifuged to separate the pellet fraction containing the polymerized form of tubulin, from the supernatant that contains the soluble form of tubulin. […]
(§7) Quantitation of the degree of in vivo tubulin polymerization in response to Epothilone A was performed as described by Giannakakou et al. ((1997) J. Biol. Chem. 272:17118-17125). […]

[10] = target: T1, tubulin (Homo sapiens, UniProt P07437); assay: Cell-based tubulin polymerization assay, 1A9 cells
T1 construct: endogenous in cells; host or cells: 1A9 human ovarian carcinoma cells
T1 sequence (P68363 whole entry): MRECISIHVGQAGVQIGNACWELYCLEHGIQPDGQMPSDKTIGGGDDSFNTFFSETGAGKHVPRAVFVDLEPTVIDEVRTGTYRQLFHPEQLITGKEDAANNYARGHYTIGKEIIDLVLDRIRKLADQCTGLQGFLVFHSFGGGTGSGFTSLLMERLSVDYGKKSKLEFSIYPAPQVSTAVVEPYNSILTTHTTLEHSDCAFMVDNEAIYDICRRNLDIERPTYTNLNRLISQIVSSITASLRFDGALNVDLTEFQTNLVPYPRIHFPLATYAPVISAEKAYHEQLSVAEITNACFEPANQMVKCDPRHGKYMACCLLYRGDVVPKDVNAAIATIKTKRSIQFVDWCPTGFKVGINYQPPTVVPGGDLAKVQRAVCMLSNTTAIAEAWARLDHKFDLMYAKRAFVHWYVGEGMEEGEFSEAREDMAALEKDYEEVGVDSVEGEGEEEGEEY
T1 sequence (P07437 whole entry): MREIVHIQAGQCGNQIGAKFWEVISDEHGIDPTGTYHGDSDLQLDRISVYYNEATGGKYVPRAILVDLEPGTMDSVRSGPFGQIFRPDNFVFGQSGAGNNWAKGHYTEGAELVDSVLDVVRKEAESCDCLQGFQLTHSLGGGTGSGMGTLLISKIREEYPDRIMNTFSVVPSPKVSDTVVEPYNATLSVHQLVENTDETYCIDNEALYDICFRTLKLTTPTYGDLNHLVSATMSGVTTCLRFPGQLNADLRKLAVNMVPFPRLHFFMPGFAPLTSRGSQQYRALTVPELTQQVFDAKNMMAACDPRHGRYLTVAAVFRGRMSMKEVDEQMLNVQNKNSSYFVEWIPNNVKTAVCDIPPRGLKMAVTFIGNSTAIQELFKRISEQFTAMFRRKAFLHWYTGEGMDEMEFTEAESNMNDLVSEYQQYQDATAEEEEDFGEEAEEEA
Method: as §5, §6, §7

[11] = tested on: 1A9-A8 cells; assay: Mitotic index analysis, 1A9-A8 cells; type: cell-based, human; conditions: 24 hr
Method: (§8) Cells were plated on glass coverslips and treated with drugs for 24 hours. Cells were fixed with ice-cold methanol and DNA was stained with Sytox Green (Molecular Probes, Eugene, Oreg.). Epifluorescence microscopy was used to count a minimum of 500 cells per drug treatment and mitotic figures were scored.

[12] = tested on: 1A9 cells; assay: Mitotic index analysis, 1A9 cells; type: cell-based, human; conditions: 24 hr
Method: as §8

[13] = target: T2, tubulin (Homo sapiens, UniProt P07437, T274I); assay: Cell-based tubulin polymerization assay, 1A9-A8 cells
T2 construct: endogenous in cells; host or cells: 1A9-A8 cells (late-step epothilone A-resistant clone of 1A9)
T2 sequence (P07437 whole entry T274I): as the sequence (P07437 whole entry) above, with T274I counted along it
T2 sequence (P68363 whole entry partner): as the sequence (P68363 whole entry) above
Method: as §5, §6, §7

[14] = tested on: 1A9-A8^E cells; assay: Mitotic index analysis, 1A9-A8^E cells; type: cell-based, human; conditions: 24 hr
Method: as §8

[15] = tested on: 1A9-A8 cells; assay: Cell cycle analysis by flow cytometry (G2/M arrest), 1A9-A8 cells; type: cell-based, human
Method: as §3, §4

[16] = tested on: human ovarian cancer clones; conditions: two Taxol-selected ovarian clones, Phe270Val and Ala364Thr; cited from earlier work
[17] = tested on: human breast cancer cells; conditions: Glu198Gly β-tubulin mutation; cited from earlier work
[18] = tested on: epothilone-resistant human ovarian cancer cell lines; conditions: Thr274Ile and Arg282Gln epothilone-selected ovarian lines; cited from earlier work
[19] = tested on: non-small cell lung cancer (NSCLC), Hela, and human leukemia cells; conditions: Gln292Glu β-tubulin mutation; cited from earlier work

## C/C(=C\c1csc(C)n1)[C@@H]1C[C@@H]2O[C@]2(C)CCC[C@H](C)[C@H](O)[C@@H](C)C(=O)C(C)(C)[C@@H](O)CC(=O)O1 [Epothilone B]
[1]
  fold resistance / cross-resistance: minimal cross-resistance
[2]
  IC50: 29 nM
  Relative Resistance (1A9-A8): 32
[3]
  IC50: 8 nM
  Relative Resistance (1A9-A8^E): 9
[4]
  IC50: 0.9 nM
[5]
  fold resistance / cross-resistance: 24-53 fold
[6]
  fold resistance / cross-resistance: 8 fold

## C/C(=C\c1csc(C)n1)[C@@H]1C[C@@H]2O[C@@H]2CCC[C@H](C)[C@H](O)[C@@H](C)C(=O)C(C)(C)[C@@H](O)CC(=O)O1 [Epothilone A]
[7]; Epo A overnight treatment
  G2/M arrest: partially arrested in G2/M; also recorded: modest G2/M arrest
[8]; Epo A overnight treatment
  G2/M arrest: complete G2/M arrest
[9]; 1A9-A8^E cells, escalating doses
  effect on tubulin polymerization: intermediate degree of tubulin polymerization
[9]; early-step 1A9-A8^E cells, 150 nM
  percent of polymerized tubulin (% P): 70%
[10]; 1A9 cells, escalating doses
  effect on tubulin polymerization: dose-dependent increase in tubulin polymerization
[10]; parental 1A9 cells, 150 nM
  percent of polymerized tubulin (% P): 90%
[11]; 10 nM
  Mitotic Index (%): 2.7%
[11]; 100 nM
  Mitotic Index (%): 6.1%
[12]; 10 nM
  Mitotic Index (%): 82%
[12]; 100 nM
  Mitotic Index (%): 96%
[13]; 1A9-A8 cells, up to highest drug concentration (1500 nM)
  effect on tubulin polymerization: almost no effect on tubulin polymerization
[13]; late-step 1A9-A8 cells, 150 nM
  percent of polymerized tubulin (% P): 3%
[2]
  IC50: 125 nM
  Relative Resistance (1A9-A8): 39
[2]; growth inhibition assays, versus parental 1A9
  resistance of late-step 1A9-A8 clone to the selecting agent: 40 fold
[3]
  IC50: 32 nM
  resistance of early-step isolate 1A9-A8^E to the selecting agent: 10 fold
  Relative Resistance (1A9-A8^E): 10
[3]; listed as Epo A
  resistance of early-step isolate 1A9-A8^E to the selecting agent: ten-fold
[4]
  IC50: 3.2 nM
[14]; 10 nM
  Mitotic Index (%): 39%
[14]; 100 nM
  Mitotic Index (%): 47%
[5]
  fold resistance / cross-resistance: 57-74 fold
[6]
  fold resistance / cross-resistance: 45 fold
[15]; Epo A overnight treatment, even at the highest concentration
  G2/M arrest: failed to arrest in mitosis; also recorded: no change was observed in the cell cycle profile

## CC[C@]1(O)C[C@H]2CN(CCc3c([nH]c4ccccc34)[C@@](C(=O)OC)(c3cc4c(cc3OC)N(C=O)[C@H]3[C@@](O)(C(=O)OC)[C@H](OC(C)=O)[C@]5(CC)C=CCN6CC[C@]43[C@@H]65)C2)C1 [Vincristine]
[7]; 10 nM
  G2/M arrest: arrested in G2/M
[7]; 10 nM, listed as vincristine
  G2/M arrest: G2/M arrest
[8]; 10 nM
  G2/M arrest: G2/M arrest
[15]; 10 nM
  G2/M arrest: arrested in G2/M
[15]; 10 nM, listed as vincristine
  G2/M arrest: G2/M arrest

## CC(=O)O[C@H]1C(=O)[C@@]2(C)[C@H]([C@H](OC(=O)c3ccccc3)[C@]3(O)C[C@H](OC(=O)[C@H](O)[C@@H](NC(=O)c4ccccc4)c4ccccc4)C(C)=C1C3(C)C)[C@]1(OC(C)=O)CO[C@@H]1C[C@@H]2O [Paclitaxel]
[16]
  fold resistance (IC50 resistant line over IC50 parental line): 30 fold
[17]
  fold resistance / cross resistance: 17 fold
[1]
  fold resistance / cross-resistance: 18 fold
[2]; Homo sapiens
  IC50: 15 nM
[2]
  Relative Resistance (1A9-A8): 10
[3]; Homo sapiens
  IC50: 9 nM
[3]
  Relative Resistance (1A9-A8^E): 6
[4]; Homo sapiens
  IC50: 1.5 nM
[6]
  fold resistance / cross-resistance: 96 fold
[18]
  cross-resistance: 7-10 fold
[19]
  fold resistance / cross-resistance: 22 fold

## CC(=O)O[C@@]12CO[C@@H]1C[C@H](O)[C@@]1(C)C(=O)[C@H](O)C3=C(C)[C@@H](OC(=O)[C@H](O)[C@@H](NC(=O)OC(C)(C)C)c4ccccc4)C[C@@](O)([C@@H](OC(=O)c4ccccc4)[C@H]21)C3(C)C [Taxotere]
[17]
  fold resistance / cross resistance: some cross resistance
[1]
  fold resistance / cross-resistance: 10 fold
[19]
  fold resistance / cross-resistance: 13 fold
